Measured values published in BindingDB's records for patent US11834453 (Array Biopharma, 2023).

target: Receptor tyrosine-protein kinase erbB-2 (Homo sapiens, UniProt P04626); test: ErbB Enzyme Assay
Method: The kinases were incubated with 250 nM TK-substrate biotin (CisBio, part of cat #62TK0PEC) at 1 mM ATP along with test compounds in a buffer consisting of 25 mM HEPES, pH 7.4, 10 mM MgCl2, 0.01% Triton X-100, and 2% DMSO in a volume of 8 uL. Compounds were prepared as a three-fold serial dilution in DMSO and added to the assay to give the appropriate final concentration. After 30-minute incubation at 22 C., the reaction was quenched by adding 8 uL of quench solution containing 62.5 nM Sa-XL665 and 0.25x TK-Ab-Cryptate in HTRF detection buffer (all from CisBio, part of cat #62TK0PEC). After a 1-hour incubation at 22 C., the extent of reaction was determined using a PerkinElmer EnVision multimode plate reader via HTRF dual wavelength detection, and the percent of control (POC) was calculated using a ratiometric emission factor.

Chain of Receptor tyrosine-protein kinase erbB-2 (P04626 whole entry): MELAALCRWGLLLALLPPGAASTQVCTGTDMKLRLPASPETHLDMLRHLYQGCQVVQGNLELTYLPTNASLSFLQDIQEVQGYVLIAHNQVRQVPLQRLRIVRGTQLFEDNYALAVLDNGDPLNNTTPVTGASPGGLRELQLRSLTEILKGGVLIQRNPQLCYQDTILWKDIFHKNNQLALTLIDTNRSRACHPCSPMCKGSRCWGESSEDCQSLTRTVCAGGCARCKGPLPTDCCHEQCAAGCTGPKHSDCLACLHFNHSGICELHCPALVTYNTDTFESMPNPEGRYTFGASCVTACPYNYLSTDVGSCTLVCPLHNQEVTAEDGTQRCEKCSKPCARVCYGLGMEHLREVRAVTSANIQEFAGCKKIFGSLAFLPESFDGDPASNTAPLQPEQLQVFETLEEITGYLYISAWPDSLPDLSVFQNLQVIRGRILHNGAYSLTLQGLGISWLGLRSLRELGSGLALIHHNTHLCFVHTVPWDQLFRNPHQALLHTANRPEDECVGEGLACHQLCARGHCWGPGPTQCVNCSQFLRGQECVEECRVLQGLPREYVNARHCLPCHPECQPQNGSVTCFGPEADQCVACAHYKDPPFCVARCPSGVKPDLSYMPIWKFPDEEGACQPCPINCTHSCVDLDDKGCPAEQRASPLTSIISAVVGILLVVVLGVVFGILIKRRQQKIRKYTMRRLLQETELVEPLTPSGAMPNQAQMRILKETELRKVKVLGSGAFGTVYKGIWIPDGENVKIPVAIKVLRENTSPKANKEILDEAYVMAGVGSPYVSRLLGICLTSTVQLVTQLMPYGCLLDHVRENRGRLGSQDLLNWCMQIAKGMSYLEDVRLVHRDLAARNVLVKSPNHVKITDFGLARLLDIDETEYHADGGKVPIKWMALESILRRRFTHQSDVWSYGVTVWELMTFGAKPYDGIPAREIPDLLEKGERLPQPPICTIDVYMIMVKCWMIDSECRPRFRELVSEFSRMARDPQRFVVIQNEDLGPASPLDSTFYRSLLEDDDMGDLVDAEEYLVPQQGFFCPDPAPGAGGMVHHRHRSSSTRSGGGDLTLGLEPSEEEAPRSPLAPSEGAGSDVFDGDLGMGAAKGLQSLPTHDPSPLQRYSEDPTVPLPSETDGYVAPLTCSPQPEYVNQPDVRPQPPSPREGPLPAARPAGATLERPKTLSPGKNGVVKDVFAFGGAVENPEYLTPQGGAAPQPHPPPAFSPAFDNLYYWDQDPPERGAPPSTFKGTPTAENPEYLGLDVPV

In order of falling IC50:
1. Cc1cc(Nc2ncnc3cnc(N4CC(C)(O)CO4)nc23)ccc1Oc1ccc2c(c1)ncn2C (stereo not drawn) [US11834453, Example 191]  0.171 µM
2. CCOc1ncc2ncnc(Nc3ccc(Oc4ccc5c(c4)ncn5C)c(C)c3)c2n1 [US11834453, Example 13]  0.121 µM
3. Cc1cc(Nc2ncnc3cnc(N4C[C@H]5CC[C@@H]4CO5)nc23)ccc1Oc1ccn2ncnc2c1 [US11834453, Example 127]  0.114 µM
4. Cc1cc(Nc2ncnc3cnc(N4CCCO4)nc23)ccc1Oc1ccc2c(c1)ncn2C [US11834453, Example 178]  0.0671 µM
5. Cc1cc(Nc2ncnc3cnc(N4CC5C6CCC(O6)C5C4)nc23)ccc1Oc1ccc2c(c1)ncn2C (stereo not drawn) [US11834453, Example 16]  0.0606 µM
6. Cc1cc(Nc2ncnc3cnc(N(C)C[C@H](C)O)nc23)ccc1Oc1ccc2c(c1)ncn2C [US11834453, Example 195]  0.0375 µM
7. Cc1cc(Nc2ncnc3cnc(N(C)C[C@@H](C)O)nc23)ccc1Oc1ccc2c(c1)ncn2C [US11834453, Example 189]  0.0322 µM
8. Cc1cc(Nc2ncnc3cnc(N(C)CCO)nc23)ccc1Oc1ccc2c(c1)ncn2C [US11834453, Example 208]  0.0256 µM
